Assay results published in patent publication EP0238905B1, “4-(2-pyrimidinyl)-1-piperazinyl heterocyclic carbonyl derivatives” (MERRELL DOW PHARMACEUTICALS INC., priority 1986, dated 1987).

Target: T1, 5-HT1A recognition sites (Rattus norvegicus, UniProt P19327)
T1 construct: Tissues from 4-8 rats are pooled and homogenized in 70 vol Tris-HCl buffer; from tissue; host or cells: Sprague-Dawley rat frontal cortex membrane homogenate
T1 sequence (P19327 1-422): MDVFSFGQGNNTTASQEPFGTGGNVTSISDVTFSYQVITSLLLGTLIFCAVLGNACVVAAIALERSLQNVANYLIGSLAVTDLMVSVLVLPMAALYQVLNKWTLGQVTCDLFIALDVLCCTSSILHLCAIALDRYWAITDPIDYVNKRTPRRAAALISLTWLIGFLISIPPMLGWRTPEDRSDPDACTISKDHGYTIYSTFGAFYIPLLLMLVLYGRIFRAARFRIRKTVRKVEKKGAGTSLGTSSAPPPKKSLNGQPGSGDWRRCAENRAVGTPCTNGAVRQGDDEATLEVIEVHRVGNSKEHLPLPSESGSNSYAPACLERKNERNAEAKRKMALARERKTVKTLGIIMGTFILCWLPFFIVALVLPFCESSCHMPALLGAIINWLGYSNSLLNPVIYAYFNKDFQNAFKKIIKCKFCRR
Experiment: In vitro 5-HT1A radioligand binding ([³H]-8-OH-DPAT)
Design: species or system Sprague-Dawley rat
Details: rat frontal cortex homogenate; radioligand [³H]-8-OH-DPAT; 37°C for 15 min; results expressed as pIC₅₀; read-out: 5-HT1A Binding Affinity Rat Brain cortex (converted)
Experimental: Radioligand binding studies of the 5-HT1A recognition sites are conducted in the following manner.
Radioactivity is measured following extraction into Aquasol-Z (NEN) at an efficiency of 45-50%.

IC50: 479 nM
SMILES: CC1(C)CC(=O)OC(=NCCCCN2CCN(c3ncccn3)CC2)N1 [Compound B, 2-[4-[4-(2-pyrimidinyl)-1-piperazinyl]butylimino]-tetrahydro-4,4-dimethyl-6H-1,3-oxazine-6-one]
